Test results published in patent US4738979A, “α2 -blocking derivatives of imidazole” (G. D. Searle & Co., priority 1985, dated 1988).
“Also recorded” adds a separate entry of the source. Read-outs that look alike come from different tables or passages of the source.

Columns and labels:
α2 -adrenergic receptors = molecular target: T1, α2 -adrenergic receptors (Cavia porcellus, UniProt Q60474); assay: α2 antagonist and α2 agonist activity in isolated guinea pig ileum (clonidine); conditions: for EC50: 50% of maximum inhibition obtained with clonidine, read-out: α2 Agonist Activity (-log ED50) (converted); for Kb: versus clonidine, read-out: α2 Antagonist Activity (pA2) (converted)
T1 construct: from tissue; host or cells: isolated guinea pig ileum
T1 sequence (Q60474 1-464): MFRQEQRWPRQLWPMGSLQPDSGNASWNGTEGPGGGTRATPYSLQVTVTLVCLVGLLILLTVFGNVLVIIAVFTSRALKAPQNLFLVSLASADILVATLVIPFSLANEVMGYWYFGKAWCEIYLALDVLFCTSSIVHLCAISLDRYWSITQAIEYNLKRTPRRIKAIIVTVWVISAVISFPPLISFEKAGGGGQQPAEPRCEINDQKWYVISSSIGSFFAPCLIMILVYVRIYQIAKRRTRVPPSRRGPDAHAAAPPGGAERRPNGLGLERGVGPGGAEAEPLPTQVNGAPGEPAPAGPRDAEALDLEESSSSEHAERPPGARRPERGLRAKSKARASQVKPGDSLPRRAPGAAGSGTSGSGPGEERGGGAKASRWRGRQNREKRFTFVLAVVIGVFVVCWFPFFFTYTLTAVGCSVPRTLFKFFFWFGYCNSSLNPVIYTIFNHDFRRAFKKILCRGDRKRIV
Method: The α2 antagonist and α2 agonist activity of the compounds according to the invention was determined upon isolated organs according to a model described by G. M. Drews, Br. J. Pharmaco., 64, 293-300 (1978).
This model is based upon the principle that the stimulation of the cholinergic nervous transmissions of the guinea pig ileum causes the liberation of acetyl choline, which in turn causes contractions of the ileum.
The stimulation of the α2 -adrenergic receptors inhibits the activity of the cholinergic nerve and consequently reduces all response resulting from a timulation of the latter. Thus the contractions of the ileum induced by electric stimulation of the tissue are inhibited by clonidine, an α2 agonist, in proportion to the dose. This inhibition is specifically displaced by the α2 antagonists and not by the α1 antagonists.
The method utilized can be summarized as follows: three dose-response curves to clonidine are established at an interval of 60 minutes. Two concentrations of the product to be tested are added successively 10 minutes before the realization of the second and third clonidine curves. Next, after washing, a dose-response curve is established with the product to be tested.
The dose-response curves are calculated as a percentage of the maximum inhibition obtained for the first curve. In this system the products having an α2 antagonist activity displace the dose-response curve to clonidine. The α2 antagonist activity, expressed in pA2 value, shown in column 4, is calculated according to J. M. Van Rossum, Arch. Int. Pharmacodyn., 143, 299-300 (1963).
A reduction of the contractions induced by the tested product alone indicates an α2 agonist effect. This activity is expressed in--log ED50 (the--logarithm of the concentration of the product giving 50% of the maximum inhibition obtained with clonidine).
The higher the pA2 value, the higher the α2 antagonist activity; the higher the--log ED50 value (i.e., the pA2 agonist activity), the higher the α2 agonist activity.

[1] = system: 5-methoxy-N,N-dimethyltryptamine-induced head twitching (serotoninergic syndrome); assay: head twitches induced by 5-methoxy-N,N-dimethyltryptamine in mice; format: in vivo
Text: The fourth in vivo study evaluated activity of the compounds of the invention on serotonin agonist-induced head twitching (serotoninergic syndrome). The compound 5-methoxy-N,N-dimethyl tryptamine is a serotonin agonist which induces head twitching in mice. The activity of this tryptamine compound is increased by antidepressant drugs. This study evaluated the ability of the compounds of the present invention to influence the effect of the tryptamine-induced head twitching (E. Friedman, et al., Eur. J. Pharmacol., 89, 69-76, 1983).
The compounds to be tested were administered to mice at the dose of 3 mg/kg p.o. either acutely or chronically twice a day continually for 2 weeks. The increased head twitching caused by the tryptamine compound (2 mg/kg i.p.) was observed 1, 24 and 72 hours after the last administration of the test compound.

[2] = system: clonidine-induced depression of locomotor activity and rearing activity; assay: clonidine-induced depression of locomotor activity, open field test in mice; format: in vivo; conditions: for minimal effective dose: Mus musculus, 2 hours prior to clonidine 0.3 mg/kg p.o.
Text: The third in vivo study evaluation activity of the compounds of the invention on clonidine induced depression of locomotor activity. The previously-discussed study involving clonidine related to its α2 agonist effects on the brain's regulation of the cardiovascular system. The present study involved clonidine α2 agonist effects on central control of locomotor activity. Clonidine inhibits locomotor activity and rearing activity in the mouse. In this "open field" test, mice are pretreated with the compounds of the present invention at doses of 1 to 10 mg/kg p.o. […] Each compound was evaluated for its ability to antagonize the effect of clonidine. […] Compound No. 1 antagonizes clonidine-induced depression of locomotor activity and rearing activity from 1 mg/kg p.o. and from 3 mg/kg p.o., respectively. The effects of chronic administration of compound No. 1 were also evaluated in this test. In this study, groups of 5-6 mice were treated with compound No. 1 (3 mg/kg p.o.) either twice daily for 14 days (chronic) or with one single dose (acute).

[3] = system: 3-mercaptopropionic acid (3-MPA)-induced tonic extension in mice; assay: protection against 3-mercaptopropionic acid (3-MPA)-induced tonic extension in mice; format: in vivo; conditions: 100 mg/kg orally, 30 minutes prior to 3-MPA (120 mg/kg s.c.)
Method: In the second study the anti-convulsant effect of the compounds of the present invention was examined in two seizure models; bicuculline-induced tonic extension in mice and 3-mercaptopropionic acid (3-MPA)-induced tonic extension in mice.
In the bicuculline study, the ability of the compounds of the present invention to protect against tonic extension (involving rigidity) was evaluated as follows. Each test compound was administered to a group of ten mice at a dose of 10 mg/kg, 3 hours prior to the i.v. administration of bicuculline (0.7 mg/kg). Anticonvulsant activity in this test is expressed as percentage of animals tested. The results are given in Table II, column 6, and indicate that several compounds display significant anticonvulsive activity in this test. The anticonvulsant effect of the compounds has also been tested with respect to the tonic extension induced by 3-mercaptopropionic acid (120 mg/kg subcutaneously) in mice.
In the 3-MPA assay, the compounds of the present invention are administered orally at a dose of 100 mg/kg 30 minutes prior to administration of 3-MPA. Each compound was tested on a group of 5 mice; if more than 1 mouse was protected, a second group of 5 mice was tested.

Row | SMILES | EC50 (α2 -adrenergic receptors) | Kb (α2 -adrenergic receptors) | anticonvulsant effect versus 3-MPA (in words) [3] | also measured
1 | c1ccc(C(Cc2c[nH]cn2)c2ccccc2)cc1 [Compound 1, 4(5)-(2,2-diphenylethyl)-imidazole] | 3160 nM | 5.01 nM | potent anticonvulsant effect | Head Twitches/5 Minutes, percent compared to the vehicle treated group ([1]; acute, 3 mg/kg p.o., 1 h after last treatment, tryptamine compound 2 mg/kg i.p.): 171%; Head Twitches/5 Minutes, percent compared to the vehicle treated group ([1]; chronic, 3 mg/kg p.o. twice a day 2 weeks, 1 h after last treatment): 278%; Head Twitches/5 Minutes, percent compared to the vehicle treated group ([1]; chronic, 3 mg/kg p.o. twice a day 2 weeks, 24 h after last treatment): 210%; Head Twitches/5 Minutes, percent compared to the vehicle treated group ([1]; chronic, 3 mg/kg p.o. twice a day 2 weeks, 72 h after last treatment): 211%; activity in the open field test after chronic administration (in words) ([2]; 3 mg/kg p.o. twice daily 14 days, clonidine 0.15 mg/kg i.p.): at the same level as after acute administration; also recorded: disappeared 24 hours after withdrawal of the drug; minimal effective dose ([2]; mice, read-out: active dose antagonizing clonidine-induced depression of locomotor activity): ≥ 1 mg/kg; minimal effective dose ([2]; mice, read-out: active dose antagonizing clonidine-induced depression of rearing activity): ≥ 3 mg/kg; % Inhibition of the Effect of Clonidine on Locomotor Activity in Mice ([2]; acute, 3 mg/kg p.o., 1 h after last administration, clonidine 0.15 mg/kg i.p.): 52%; % Inhibition of the Effect of Clonidine on Locomotor Activity in Mice ([2]; chronic, 3 mg/kg p.o. twice daily 14 days, 1 h after last administration, clonidine 0.15 mg/kg i.p.): 59%; % Inhibition of the Effect of Clonidine on Locomotor Activity in Mice ([2]; chronic, 3 mg/kg p.o. twice daily 14 days, 24 h after last administration, clonidine 0.15 mg/kg i.p.): 3%; % Inhibition of the Effect of Clonidine on Locomotor Activity in Mice ([2]; chronic, 3 mg/kg p.o. twice daily 14 days, 72 h after last administration, clonidine 0.15 mg/kg i.p.): 5%; accumulation of the compound after chronic administration (in words) ([2]; inferred from open field activity after withdrawal, 14 days twice daily): Accumulation of the compound does not appear to occur; activity in the open field test (in words) ([2]; mice, 1 to 10 mg/kg p.o., clonidine 0.3 mg/kg p.o.): particularly active
2 | CC(c1c[nH]cn1)C(c1ccccc1)c1ccccc1 (stereo not drawn) [Compound 4] | > 3160 nM | 316 nM |  | 
3 | Cc1cccc(C(Cc2c[nH]cn2)c2ccccc2)c1 (stereo not drawn) [Compound 9, 4(5)-{[2-(3-methylphenyl)-2-phenyl]ethyl}imidazole] | 2510 nM | 15.8 nM |  | 
4 | Cc1ccccc1C(Cc1c[nH]cn1)c1ccccc1 (stereo not drawn) [Compound 12] | 3980 nM | 12.6 nM |  | 
5 | Clc1ccccc1C(Cc1c[nH]cn1)c1ccccc1 (stereo not drawn) [Compound 13, 4(5)-{[2-(2-chlorophenyl)-2-phenyl]ethyl}imidazole] | 3160 nM | 10 nM | potent anticonvulsant effect | 
6 | Fc1ccc(C(Cc2c[nH]cn2)c2ccccc2)cc1 (stereo not drawn) [Compound 14, 4(5)-{[2-(4-fluorophenyl)-2-phenyl]ethyl}imidazole] | 6310 nM | 15.8 nM |  | 
7 | Fc1ccc(C(Cc2c[nH]cn2)c2ccccc2F)cc1 (stereo not drawn) [Compound 15, 4(5)-{[2-(2-fluorophenyl)-2-(4'-fluorophenyl)]ethyl}imidazole] | 5010 nM | 15.8 nM |  | 
8 | Cc1ccc(C)c(C(Cc2c[nH]cn2)c2ccccc2)c1 (stereo not drawn) [Compound 16] | 2000 nM | 100 nM | potent anticonvulsant effect | 
9 | COc1ccc(C(Cc2c[nH]cn2)c2ccccc2)cc1 (stereo not drawn) [Compound 17, 4(5)-{[2-(4-methoxyphenyl)-2-phenyl]ethyl}imidazole] | 10000 nM | 12.6 nM |  | 
10 | Cc1ccc(C(Cc2c[nH]cn2)c2ccccc2)cc1 (stereo not drawn) [Compound 21] | 5010 nM | 25.1 nM |  | 
